# Values joined by “and” are separate entries in the source; they are usually repeats but may differ in a detail not shown here. Identical values can stand only once. Like-named read-outs stand apart in the source and are kept apart here.
# Columns and labels:
# [1] = system: M. avium clinical isolate Koav 1 (WT); assay: microbe, parasite or virus in culture; format: cell-based; conditions: Mycobacterium avium
# [2] = system: M. avium clinical isolate Koav 20 (WT); assay: microbe, parasite or virus in culture; format: cell-based; conditions: Koav 20 (K 20), WT; for MIC: Mycobacterium avium
# [3] = system: M. avium clinical isolate Koav 19 (WT); assay: microbe, parasite or virus in culture; format: cell-based; conditions: Koav 19 (K 19), WT
# [4] = system: M. avium clinical isolate Koav 2 (WT); assay: microbe, parasite or virus in culture; format: cell-based; conditions: Mycobacterium avium, drug alone, day 14
# [5] = system: M. avium clinical isolate Koav 11 (GyrA Asp95Tyr); format: cell-based, M. avium subsp. hominissuis
# [6] = system: M. avium clinical isolate Koav 20 (WT); assay: microbe, parasite or virus in culture; format: cell-based; conditions: Mycobacterium avium
# [7] = system: M. avium clinical isolates; format: cell-based, M. avium subsp. hominissuis
# [8] = system: M. avium clinical isolate Koav 13 (GyrA Asp95Gly); format: cell-based, M. avium subsp. hominissuis
# [9] = system: M. avium clinical isolate Koav 25 (WT); assay: microbe, parasite or virus in culture; format: cell-based; conditions: Koav 25 (K 25), WT; for MIC: Mycobacterium avium
# [10] = system: M. avium clinical isolates; format: cell-based, M. avium subsp. hominissuis; conditions: for range of mean FICIms: over isolates, WQ-3810 and MXF together
# [11] = system: M. avium clinical isolate Koav 13 (GyrA Asp95Gly); format: cell-based, M. avium subsp. hominissuis; remark: listed apart in the source
# [12] = system: M. avium clinical isolate Koav 19 (WT); assay: microbe, parasite or virus in culture; format: cell-based; conditions: Mycobacterium avium
# [13] = system: M. avium clinical isolate Koav 1 (WT); assay: microbe, parasite or virus in culture; format: cell-based; conditions: Koav 1 (K 1), WT; for MIC: Mycobacterium avium
# [14] = system: M. avium clinical isolate Cl-A-2 (GyrA Asp95Tyr); format: cell-based, M. avium subsp. hominissuis
# [15] = system: M. avium clinical isolate Koav 3 (GyrA Asp95Gly); format: cell-based, M. avium subsp. hominissuis
# [16] = system: M. avium clinical isolate Koav 2 (WT); assay: microbe, parasite or virus in culture; format: cell-based; conditions: Koav 2 (K 2), WT; for MIC: Mycobacterium avium
# [17] = system: M. avium clinical isolate Koav 25 (WT); assay: microbe, parasite or virus in culture; format: cell-based; conditions: Mycobacterium avium
# [18] = system: M. avium clinical isolate Koav 21 (WT); assay: microbe, parasite or virus in culture; format: cell-based; conditions: Koav 21 (K 21), WT; for MIC: Mycobacterium avium
# [19] = system: M. avium clinical isolate Koav 15 (WT); assay: microbe, parasite or virus in culture; format: cell-based; conditions: Koav 15 (K 15), WT
# [20] = system: M. avium clinical isolate Koav 11 (GyrA Asp95Tyr); format: cell-based, M. avium subsp. hominissuis; remark: listed apart in the source
# [21] = system: M. avium clinical isolate Koav 3 (GyrA Asp95Gly); format: cell-based, M. avium subsp. hominissuis; remark: listed apart in the source
# [22] = system: M. avium clinical isolate Koav 21 (WT); assay: microbe, parasite or virus in culture; format: cell-based; conditions: Mycobacterium avium
# [23] = system: M. avium clinical isolate Koav 15 (WT); assay: microbe, parasite or virus in culture; format: cell-based; conditions: Mycobacterium avium
# [24] = drug alone, day 14, read-out: MIC
# [25] = checkerboard (with 1 µg/ml INH)
# [26] = checkerboard, single replicates
# [27] = checkerboard (with 1 µg/ml INH), read-out: MIC of FQ with INH
# [28] = checkerboard, single replicates, read-out: MIC of drug alone
# [29] = Mycobacterium avium, checkerboard, single replicates, read-out: MIC of drug alone
# [30] = FQ-resistant isolates, MIC assay
# [31] = checkerboard (S2: with 1 µg/ml EMB), read-out: MIC of FQ with EMB
smiles,measurement,setting,value
Cc1c(N2CC(N(C)C)C2)c(F)cc2c(=O)c(C(=O)O)cn(-c3nc(N)c(F)cc3F)c12 [WQ-3810],MIC,[1]; [24],0.125 µg/mL
same,MIC,[1]; read-out: MIC with 1 µg/mL EMB,0.01 µg/mL
same,MIC,[1]; read-out: MIC with 1 µg/mL INH,0.03 µg/mL
same,mean FICIm,[2]; FQ with EMB,0.66
same,mean FICIm,[2]; FQ with INH,0.25
same,FICIm,"[2]; FQ+EMB, single replicates",0.625 and 0.75
same,FICIm,"[2]; FQ+INH, single replicates",0.25
same,MIC of FQ with INH,[2]; [25],0.0625 µg/mL
same,MIC of drug alone,[2]; [26],0.5 µg/mL
same,MIC,[2]; [27],0.0312 µg/mL
same,MIC,[2]; [28],0.25 µg/mL
same,mean FICIm,[3]; FQ with EMB,0.85
same,mean FICIm,[3]; FQ with INH,0.45 and 0.46
same,FICIm,"[3]; FQ+EMB, single replicates",1 and 0.625
same,FICIm,"[3]; FQ+INH, single replicates",0.5312 and 0.5 and 0.375
same,MIC of drug alone,[3]; [26],0.5 µg/mL
same,MIC,[3]; [29],0.25 µg/mL
same,MIC,[4],0.5 µg/mL
same,MIC,[5],4 µg/mL
same,MIC with 1 µg/mL EMB,[5],4 (×1) µg/mL
same,MIC with 1 µg/mL INH,[5],4 (×1) µg/mL
same,MIC,[6]; [24],0.125 µg/mL
same,MIC,[6]; read-out: MIC with 1 µg/mL EMB,0.13 µg/mL
same,MIC,[6]; read-out: MIC with 1 µg/mL INH,0.13 µg/mL
same,MIC range,[7],4 to 8 µg/mL
same,higher antimicrobial activity than CIP,[7]; [30],4 to 8 fold
same,higher antimicrobial activity than LVX,[7]; [30],2 to 16 fold
same,higher antimicrobial activity than MXF,[7]; [30],2 to 4 fold
same,MIC range,[7]; WT isolates,0.125 to 1 µg/mL
same,MIC of FQ with EMB,[8],4 µg/mL and 2 µg/mL
same,MIC of drug alone,[8],8 µg/mL and 4 µg/mL
same,mean FICIm,[9]; FQ with EMB,0.75
same,mean FICIm,[9]; FQ with INH,0.39
same,FICIm,"[9]; FQ+EMB, single replicates",0.75
same,FICIm,"[9]; FQ+INH, single replicates",0.5 and 0.375 and 0.3125
same,FIC of FQ,[9]; pair with EMB,0.25 µg/mL
same,MIC,[9]; [31],0.25 µg/mL
same,MIC,[9]; [28],1 µg/mL
same,interaction,"[10]; in combination with EMB, mean FICIm between 0.5 and 1 additive",additive
same,interaction,"[10]; in combination with INH, FICIm ≤ 0.5 regarded as synergistic",synergistic
same,range of mean FICIms,[10]; with EMB,0.41 to 0.91
same,range of mean FICIms,[10]; with INH,0.19 to 0.71
same,MIC,[11],8 µg/mL
same,MIC with 1 µg/mL EMB,[11],4 (×0.5) µg/mL
same,MIC with 1 µg/mL INH,[11],4 (×0.5) µg/mL
same,MIC,[12]; [24],0.5 µg/mL
same,MIC,[12]; read-out: MIC with 1 µg/mL EMB,0.25 µg/mL
same,MIC,[12]; read-out: MIC with 1 µg/mL INH,0.13 µg/mL
same,mean FICIm,[13]; FQ with EMB,0.62
same,mean FICIm,[13]; FQ with INH,0.45
same,FICIm,"[13]; FQ+EMB, single replicates",0.625 and 0.5 and 0.75
same,FICIm,"[13]; FQ+INH, single replicates",0.5 and 0.375
same,MIC of drug alone,[13]; [26],0.25 µg/mL
same,MIC,[13]; [27],0.0312 µg/mL
same,MIC,[13]; [28],0.125 µg/mL
same,MIC of FQ with EMB,[14],1 µg/mL and 0.5 µg/mL
same,MIC of FQ with INH,[14],0.5 µg/mL and 0.25 µg/mL
same,mean FICIm,[14],0.53 and 0.66
same,MIC,[15],4 µg/mL
same,MIC with 1 µg/mL EMB,[15],4 (×1) µg/mL
same,MIC with 1 µg/mL INH,[15],2 (×0.5) µg/mL
same,mean FICIm,[16]; FQ with EMB,0.91
same,mean FICIm,[16]; FQ with INH,0.25
same,FICIm,"[16]; FQ+EMB, single replicates",0.75 and 1
same,FICIm,"[16]; FQ+INH, single replicates",0.25
same,MIC of FQ with EMB,[16]; checkerboard (S2: with 1 µg/ml EMB),0.25 µg/mL
same,MIC,[16]; [31],0.125 µg/mL
same,MIC,[16]; [27],0.0625 µg/mL
same,MIC,[16]; [28],0.5 µg/mL
same,MIC,[17]; [24],1 µg/mL
same,MIC,[17]; read-out: MIC with 1 µg/mL EMB,0.5 µg/mL
same,MIC,[17]; read-out: MIC with 1 µg/mL INH,0.5 µg/mL
same,mean FICIm,[18]; FQ with EMB,0.75
same,mean FICIm,[18]; FQ with INH,0.41
same,FICIm,"[18]; FQ+EMB, single replicates",0.75
same,FICIm,"[18]; FQ+INH, single replicates",0.375 and 0.5312
same,MIC of FQ with INH,[18]; [25],1 µg/mL
same,MIC,[18]; [31],0.5 µg/mL
same,MIC,[18]; [27],0.5 µg/mL
same,MIC,[18]; [28],2 µg/mL
same,mean FICIm,[19]; FQ with EMB,0.71
same,mean FICIm,[19]; FQ with INH,0.33
same,FICIm,"[19]; FQ+EMB, single replicates",0.75 and 0.625
same,FICIm,"[19]; FQ+INH, single replicates",0.25 and 0.5 and 0.2812
same,MIC,[19]; [29],1 µg/mL
same,MIC of FQ with EMB,[20],2 µg/mL
same,MIC of FQ with INH,[20],1 µg/mL and 0.5 µg/mL
same,MIC of drug alone,[20],4 µg/mL
same,mean FICIm,[20],0.46 and 0.83
same,FICIm,[21],0.75
same,MIC of FQ with EMB,[21],1 µg/mL and 2 µg/mL
same,MIC of FQ with INH,[21],1 µg/mL and 2 µg/mL
same,MIC of drug alone,[21],4 µg/mL
same,mean FICIm,[21],0.71 and 0.75
same,MIC,[22]; [24],1 µg/mL
same,MIC,[22]; read-out: MIC with 1 µg/mL EMB,1 µg/mL
same,MIC,[22]; read-out: MIC with 1 µg/mL INH,1 µg/mL
same,MIC,[23]; [24],1 µg/mL
same,MIC,[23]; read-out: MIC with 1 µg/mL EMB,1 µg/mL
same,MIC,[23]; read-out: MIC with 1 µg/mL INH,1 µg/mL

# — article PMC12291913 (Antibiotics, 2025)
